Key:
Format in all cases: in vivo
[1] = system: giant foxtail (Setaria faberi); assay: Test G Pre-Emergence Protocol; conditions: Setaria faberi, pre-emergence, 312 h, evaluated after 13 days; for pest or weed control at 15.625 g/ha: 15.625 g ai/ha; for pest or weed control at 15.625 g/ha / pest or weed control at 250 g/ha: read-out: Foxtail, Giant damage rating (100=total damage to plant; 0=no damage to plant); for pest or weed control at 62.5 g/ha: 62.5 g ai/ha, 100=total damage to plant, 0=no damage to plant, read-out: plant damage rating, Foxtail, Giant; for pest or weed control at 250 g/ha: 250 g ai/ha
Procedure: (§1) Seeds of corn (Zea mays), giant foxtail (Setaria faberi), barnyardgrass (Echinochloa crus-galli), ivy-leaved morning glory (Ipomoea hederacea), redroot pigweed (Amaranthus retroflexus) and velvetleaf (Abutilon theophrasti) were sown in standard soil in pots. After cultivation for one day under controlled conditions in a glasshouse (at 24/16° C., day/night; 14 hours light; 65% humidity), the plants were sprayed with an aqueous spray solution derived from the formulation of the technical active ingredient in acetone/water (50:50) solution containing 0.5% Tween 20 (polyoxyethylene sorbitan monolaurate, CAS RN 9005-64-5) to give a final dose of 15.625, 62.5 or 250 g/ha of test compound.
(§2) The test plants were then grown on under controlled conditions in a glasshouse (at 24/16° C., day/night; 14 hours light; 65% humidity) and watered twice daily. After 13 days the test was evaluated (100=total damage to plant; 0=no damage to plant). A dash (-) means no test result.

[2] = system: redroot pigweed (Amaranthus retroflexus); assay: Test G Pre-Emergence Protocol; conditions: Amaranthus retroflexus, pre-emergence, 312 h, evaluated after 13 days; for pest or weed control at 15.625 g/ha: 15.625 g ai/ha; for pest or weed control at 15.625 g/ha / pest or weed control at 250 g/ha: read-out: Pigweed, Redroot damage rating (100=total damage to plant; 0=no damage to plant); for pest or weed control at 62.5 g/ha: 62.5 g ai/ha, 100=total damage to plant, 0=no damage to plant, read-out: plant damage rating, Pigweed, Redroot; for pest or weed control at 250 g/ha: 250 g ai/ha
Procedure: as §1, §2

[3] = system: velvetleaf (Abutilon theophrasti); assay: Test G Pre-Emergence Protocol; conditions: Abutilon theophrasti, pre-emergence, 312 h, evaluated after 13 days; for pest or weed control at 15.625 g/ha: 15.625 g ai/ha; for pest or weed control at 15.625 g/ha / pest or weed control at 250 g/ha: read-out: Velvetleaf damage rating (100=total damage to plant; 0=no damage to plant); for pest or weed control at 62.5 g/ha: 62.5 g ai/ha, 100=total damage to plant, 0=no damage to plant, read-out: plant damage rating, Velvetleaf; for pest or weed control at 250 g/ha: 250 g ai/ha
Procedure: as §1, §2

[4] = system: ivy-leaved morning glory (Ipomoea hederacea); assay: Test G Pre-Emergence Protocol; conditions: Ipomoea, pre-emergence, 312 h, evaluated after 13 days; for pest or weed control at 62.5 g/ha: 62.5 g ai/ha, 100=total damage to plant, 0=no damage to plant, read-out: plant damage rating, Morningglory, Ivy-leaved; for pest or weed control at 250 g/ha: 250 g ai/ha, read-out: Morningglory, Ivy-leaved damage rating (100=total damage to plant; 0=no damage to plant)
Procedure: as §1, §2

corn (Zea mays) [5] = assay: Test G Pre-Emergence Protocol; conditions: Zea mays, pre-emergence, 312 h, evaluated after 13 days; for plant injury at 15.625 g/ha: 15.625 g ai/ha; for plant injury at 15.625 g/ha / plant injury at 250 g/ha: read-out: Corn damage rating (100=total damage to plant; 0=no damage to plant); for plant injury at 62.5 g/ha: 62.5 g ai/ha, 100=total damage to plant, 0=no damage to plant, read-out: plant damage rating, Corn; for plant injury at 250 g/ha: 250 g ai/ha
Procedure: as §1, §2

[6] = system: barnyardgrass (Echinochloa crus-galli); assay: Test G Pre-Emergence Protocol; conditions: Echinochloa crus-galli, pre-emergence, 312 h, evaluated after 13 days; for pest or weed control at 15.625 g/ha: 15.625 g ai/ha, read-out: Barnyard grass damage rating (100=total damage to plant; 0=no damage to plant); for pest or weed control at 62.5 g/ha: 62.5 g ai/ha, 100=total damage to plant, 0=no damage to plant, read-out: plant damage rating, Barnyardgrass; for pest or weed control at 250 g/ha: 250 g ai/ha, read-out: Barnyardgrass damage rating (100=total damage to plant; 0=no damage to plant)
Procedure: as §1, §2

[7] = system: giant foxtail (Setaria faberi); assay: Test G Post-Emergence Protocol; conditions: Setaria faberi, post-emergence, 312 h; for pest or weed control at 15.625 g/ha: 15.625 g ai/ha, evaluated after 13 days (100=total damage to plant; 0=no damage to plant), read-out: Foxtail, Giant damage rating; for pest or weed control at 62.5 g/ha: 62.5 g ai/ha, read-out: Foxtail, Giant damage rating (100=total damage to plant; 0=no damage to plant); for pest or weed control at 62.5 g/ha / pest or weed control at 250 g/ha: evaluated after 13 days; for pest or weed control at 250 g/ha: 250 g ai/ha, read-out: damage to plant, Foxtail, Giant (100=total damage to plant; 0=no damage to plant)
Procedure: as §1, with “8 days” for “one day”
as §2

[8] = system: redroot pigweed (Amaranthus retroflexus); assay: Test G Post-Emergence Protocol; conditions: Amaranthus retroflexus, post-emergence, 312 h; for pest or weed control at 15.625 g/ha: 15.625 g ai/ha, evaluated after 13 days (100=total damage to plant; 0=no damage to plant), read-out: Pigweed, Redroot damage rating; for pest or weed control at 62.5 g/ha: 62.5 g ai/ha, read-out: Pigweed, Redroot damage rating (100=total damage to plant; 0=no damage to plant); for pest or weed control at 62.5 g/ha / pest or weed control at 250 g/ha: evaluated after 13 days; for pest or weed control at 250 g/ha: 250 g ai/ha, read-out: damage to plant, Pigweed, Redroot (100=total damage to plant; 0=no damage to plant)
Procedure: as §1, with “8 days” for “one day”
as §2

[9] = system: velvetleaf (Abutilon theophrasti); assay: Test G Post-Emergence Protocol; conditions: Abutilon theophrasti, post-emergence, 312 h; for pest or weed control at 15.625 g/ha: 15.625 g ai/ha, evaluated after 13 days (100=total damage to plant; 0=no damage to plant), read-out: Velvetleaf damage rating; for pest or weed control at 62.5 g/ha: 62.5 g ai/ha, read-out: Velvetleaf damage rating (100=total damage to plant; 0=no damage to plant); for pest or weed control at 62.5 g/ha / pest or weed control at 250 g/ha: evaluated after 13 days; for pest or weed control at 250 g/ha: 250 g ai/ha, read-out: damage to plant, Velvetleaf (100=total damage to plant; 0=no damage to plant)
Procedure: as §1, with “8 days” for “one day”
as §2

[10] = system: ivy-leaved morning glory (Ipomoea hederacea); assay: Test G Post-Emergence Protocol; conditions: Ipomoea, post-emergence, 312 h; for pest or weed control at 15.625 g/ha: 15.625 g ai/ha, evaluated after 13 days (100=total damage to plant; 0=no damage to plant), read-out: Morningglory, Ivy-leaved damage rating; for pest or weed control at 62.5 g/ha: 62.5 g ai/ha, read-out: Morningglory, Ivy-leaved damage rating (100=total damage to plant; 0=no damage to plant); for pest or weed control at 62.5 g/ha / pest or weed control at 250 g/ha: evaluated after 13 days; for pest or weed control at 250 g/ha: 250 g ai/ha, read-out: damage to plant, Morningglory, Ivy-leaved (100=total damage to plant; 0=no damage to plant)
Procedure: as §1, with “8 days” for “one day”
as §2

corn (Zea mays) [11] = assay: Test G Post-Emergence Protocol; conditions: Zea mays, post-emergence, 312 h; for plant injury at 15.625 g/ha: 15.625 g ai/ha, evaluated after 13 days (100=total damage to plant; 0=no damage to plant), read-out: Corn damage rating; for plant injury at 62.5 g/ha: 62.5 g ai/ha, read-out: Corn damage rating (100=total damage to plant; 0=no damage to plant); for plant injury at 62.5 g/ha / plant injury at 250 g/ha: evaluated after 13 days; for plant injury at 250 g/ha: 250 g ai/ha, read-out: damage to plant, Corn (100=total damage to plant; 0=no damage to plant)
Procedure: as §1, with “8 days” for “one day”
as §2

[12] = system: barnyardgrass (Echinochloa crus-galli); assay: Test G Post-Emergence Protocol; conditions: Echinochloa crus-galli, post-emergence, 312 h; for pest or weed control at 15.625 g/ha: 15.625 g ai/ha, evaluated after 13 days (100=total damage to plant; 0=no damage to plant), read-out: Barnyardgrass damage rating; for pest or weed control at 62.5 g/ha: 62.5 g ai/ha, read-out: Barnyardgrass damage rating (100=total damage to plant; 0=no damage to plant); for pest or weed control at 62.5 g/ha / pest or weed control at 250 g/ha: evaluated after 13 days; for pest or weed control at 250 g/ha: 250 g ai/ha, read-out: damage to plant, Barnyardgrass (100=total damage to plant; 0=no damage to plant)
Procedure: as §1, with “8 days” for “one day”
as §2

| SMILES | pest or weed control at 15.625 g/ha [1] [%] | pest or weed control at 62.5 g/ha [1] [%] | pest or weed control at 250 g/ha [1] [%] | pest or weed control at 15.625 g/ha [2] [%] | pest or weed control at 62.5 g/ha [2] [%] | pest or weed control at 250 g/ha [2] [%] | pest or weed control at 15.625 g/ha [3] [%] | pest or weed control at 62.5 g/ha [3] [%] | pest or weed control at 250 g/ha [3] [%] | pest or weed control at 62.5 g/ha [4] [%] | pest or weed control at 250 g/ha [4] [%] | plant injury at 15.625 g/ha (corn (Zea mays) [5]) [%] | plant injury at 62.5 g/ha (corn (Zea mays) [5]) [%] | plant injury at 250 g/ha (corn (Zea mays) [5]) [%] | pest or weed control at 15.625 g/ha [6] [%] | pest or weed control at 62.5 g/ha [6] [%] | pest or weed control at 250 g/ha [6] [%] | pest or weed control at 15.625 g/ha [7] [%] | pest or weed control at 62.5 g/ha [7] [%] | pest or weed control at 250 g/ha [7] [%] | further results |
| --- | --- | --- | --- | --- | --- | --- | --- | --- | --- | --- | --- | --- | --- | --- | --- | --- | --- | --- | --- | --- | --- |
| CN1C[C@@H](c2ccc(C(F)(F)F)cc2)[C@H](C(=O)Nc2cccc3cn[nH]c23)C1=O (racemic) [Compound 1605] | 0 | 0 | 0 | 0 | 0 | 0 | 0 | 0 | 0 | 0 | 0 | 0 | 0 | 0 | 0 | 0 | 0 | 0 | 0 | 10 | pest or weed control at 15.625 g/ha ([4]; 15.625 g ai/ha, read-out: Morning-glory, Ivy-leaved damage rating (100=total damage to plant; 0=no damage to plant)): 0%; pest or weed control at 15.625 g/ha [8]: 0%; pest or weed control at 62.5 g/ha [8]: 20%; pest or weed control at 250 g/ha [8]: 30%; pest or weed control at 15.625 g/ha [9]: 0%; pest or weed control at 62.5 g/ha [9]: 0%; pest or weed control at 250 g/ha [9]: 10%; pest or weed control at 15.625 g/ha [10]: 0%; pest or weed control at 62.5 g/ha [10]: 0%; pest or weed control at 250 g/ha [10]: 0%; plant injury at 15.625 g/ha (corn (Zea mays) [11]): 0%; plant injury at 62.5 g/ha (corn (Zea mays) [11]): 0%; plant injury at 250 g/ha (corn (Zea mays) [11]): 10%; pest or weed control at 15.625 g/ha [12]: 0%; pest or weed control at 62.5 g/ha [12]: 0%; pest or weed control at 250 g/ha [12]: 30% |
| Cc1conc1NC(=O)[C@@H]1C(=O)N(C)C[C@H]1c1ccc(C(F)(F)F)cc1 (racemic) [Compound 1553] | 0 | 0 | 0 | 0 | 0 | 0 | 0 | 0 | 0 | 0 | 0 | 0 | 0 | 0 | 0 | 0 | 0 | 0 | 0 | 0 | pest or weed control at 15.625 g/ha [8]: 0%; pest or weed control at 62.5 g/ha [8]: 0%; pest or weed control at 250 g/ha [8]: 0%; pest or weed control at 15.625 g/ha [9]: 0%; pest or weed control at 62.5 g/ha [9]: 0%; pest or weed control at 250 g/ha [9]: 0%; pest or weed control at 15.625 g/ha [10]: 0%; pest or weed control at 62.5 g/ha [10]: 0%; pest or weed control at 250 g/ha [10]: 0%; plant injury at 15.625 g/ha (corn (Zea mays) [11]): 0%; plant injury at 62.5 g/ha (corn (Zea mays) [11]): 0%; plant injury at 250 g/ha (corn (Zea mays) [11]): 0%; pest or weed control at 15.625 g/ha [12]: 0%; pest or weed control at 62.5 g/ha [12]: 0%; pest or weed control at 250 g/ha [12]: 0% |
